From US10160769B2, “Compositions comprising thienopyrimidine and thienopyridine compounds and methods of use thereof” (The Regents of the University of Michigan, priority 2013, dated 2018)

Tests used:
menin = biological target: T1, menin (Homo sapiens, UniProt O00255); test: Isothermal Titration calorimetry (ITC); format: binding; conditions: FIG. 1
T1 sequence (O00255 1-610): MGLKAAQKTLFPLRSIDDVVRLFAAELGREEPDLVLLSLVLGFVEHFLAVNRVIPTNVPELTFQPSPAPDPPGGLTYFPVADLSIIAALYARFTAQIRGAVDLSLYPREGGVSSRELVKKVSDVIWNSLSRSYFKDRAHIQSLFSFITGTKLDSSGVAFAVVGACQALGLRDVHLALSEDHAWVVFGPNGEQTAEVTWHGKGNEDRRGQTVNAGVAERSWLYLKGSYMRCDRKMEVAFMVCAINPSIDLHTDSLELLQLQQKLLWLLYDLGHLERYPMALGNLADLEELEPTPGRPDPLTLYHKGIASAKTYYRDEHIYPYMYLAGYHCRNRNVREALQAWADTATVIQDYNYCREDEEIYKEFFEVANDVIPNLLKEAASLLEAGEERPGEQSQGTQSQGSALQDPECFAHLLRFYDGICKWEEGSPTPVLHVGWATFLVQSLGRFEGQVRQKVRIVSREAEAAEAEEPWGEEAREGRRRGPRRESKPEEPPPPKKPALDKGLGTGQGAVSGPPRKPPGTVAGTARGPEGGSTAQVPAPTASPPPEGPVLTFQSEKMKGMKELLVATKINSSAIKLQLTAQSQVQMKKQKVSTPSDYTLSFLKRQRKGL

[1] = biological target: T2, menin-MLL-AF9 interaction (Homo sapiens, UniProt O00255); test: Co-Immunoprecipitation (co-IP) in HEK293 cells transfected with MLL-AF9; format: cell-based; conditions: FIG. 2
T2 construct: performed in HEK293 cells transfected with MLL-AF9; endogenous in cells; host or cells: HEK293
T2 sequence (O00255 1-610): T1 sequence (O00255 1-610)

[2] = system: MLL-AF9 transformed mouse bone marrow cells (BMC); test: MTT cell viability assay in transformed BMC; format: cell-based; conditions: 72 h incubation, E2H-HLF transformed BMC as negative control, FIG. 3
[3] = system: Hoxa9 and Meis1 expression in MLL-AF9 BMC; test: qRT-PCR of Hoxa9 and Meis1; format: cell-based, mouse; conditions: FIG. 10
MLL-AF9 transformed BMC = test: Growth curves experiments in transformed BMC; format: cell-based, mouse; conditions: MLL-AF9 BMC vs Hoxa9/Meis1 transformed BMC (negative control), FIG. 5
MLL-AF9 BMC [4] = test: Differentiation (CD11b expression, cell morphology); format: cell-based, mouse; conditions: change in CD11b expression and cell morphology, FIGS. 8, 9
[5] = system: human MLL leukemia cell lines; test: Growth / MTT cell viability in human MLL leukemia cell lines; format: cell-based
[6] = system: non-MLL leukemia cell lines; test: Growth in non-MLL leukemia cell lines; format: cell-based; conditions: FIG. 13B
menin-MLL interaction = biological target: T3, menin-MLL interaction (Homo sapiens, UniProt O00255); test: biochemical
T3 sequence (O00255 1-610): T1 sequence (O00255 1-610)
Source text: Fluorescence Polarization Assay.
Compounds that inhibit the interaction decrease the fluorescence anisotropy which is being used as a read-out for compound screening and for IC50 determination.

MLL-AF9 BMC [7] = test: Colony formation assay; format: cell-based, mouse; conditions: FIG. 7
[8] = system: mice model of MLL-AF9 leukemia; test: In vivo efficacy in mice model of MLL-AF9 leukemia; conditions: once daily i.p. injections of 75 mg/kg, FIG. 18

How did the binding to menin (menin) turn out when `CC1(C)CN=C(N2CCN(c3ncnc4sc(CC(F)(F)F)cc34)CC2)S1` [Compound 1, 4-(4-(5,5-dimethyl-4,5-dihydrothiazol-2-yl)piperazin-1-yl)-6-(2,2,2-trifluoroethyl)thieno[2,3-d]pyrimidine] was run?
Its binding to menin is “direct binding”.

What about the “inhibition of the menin-MLL-AF9 interaction” value [1] of the same molecule?
The value was “inhibition of the menin-MLL-AF9 interaction”.

And the “proliferation of MLL leukemia cells” value [2]?
Its value is “selectively inhibit proliferation”.

What about the “expression of downstream targets of MLL fusion proteins: Hoxa9 and Meis1” value [3] of the same molecule?
Its value is “downregulate expression”.

Which “inhibition of the menin-MLL-AF9 interaction” value [1] does the source give for `N#Cc1cc2cc(CN3CCC(Nc4ncnc5sc(CC(F)(F)F)cc45)CC3)ccc2[nH]1` [Compound 175, 5-((4-((6-(2,2,2-trifluoroethyl)thieno[2,3-d]pyrimidin-4-yl)amino)piperidin-1-yl)methyl)-1H-indole-2-carbonitrile] here?
The value was “inhibition of the menin-MLL-AF9 interaction”.

What about the “selectivity towards MLL fusion protein transformed cells” value (MLL-AF9 transformed BMC) of the same molecule?
Its value is “great selectivity”.

And the differentiation (MLL-AF9 BMC [4])?
The differentiation was “Differentiation induced”.

What about the “expression of downstream targets of MLL fusion proteins: Hoxa9 and Meis1” value [3] of the same molecule?
The value was “downregulate expression”.

What about the “growth of human MLL leukemia cell lines” value ([5]; FIG. 13A) of the same molecule?
Its value is “selectively inhibits growth”.

What about the “effect in non-MLL leukemia cell lines” value [6] of the same molecule?
Its value is “limited effect”.

For `CC(F)(F)Cc1cc2c(NC3CCN(Cc4ccccc4)CC3)ncnc2s1` [Compound 155], which IC50 (menin-MLL interaction) is on record?
Its IC50 is 500 to 2000 nM.

Which results are given for `FC(F)(F)Cc1cc2c(NC3CCN(Cc4ccccc4)CC3)ncnc2s1` [Compound 108]?
inhibition of the menin-MLL-AF9 interaction [1]: inhibition of the menin-MLL-AF9 interaction; proliferation of MLL leukemia cells [2]: selectively inhibit proliferation; morphology of colonies (MLL-AF9 BMC [7]): changes morphology of colonies; colony number (MLL-AF9 BMC [7]; each round 7 days): reduces colony number; expression of downstream targets of MLL fusion proteins: Hoxa9 and Meis1 [3]: downregulate expression; growth of human MLL leukemia cell lines ([5]; MTT, 3 days of incubation, FIG. 11): selectively inhibit growth; survival of leukemic mice [8]: Increase in survival

With `CC1(C)CN=C(N2C[C@@H]3C[C@H]2CN3c2ncnc3sc(CC(F)(F)F)cc23)S1` (racemic) [Compound 14] as the molecule, how does the IC50 (menin-MLL interaction) read?
Its IC50 is 100 to 510 nM.
